Tests used:
Kasumi-1 cells = test: Kasumi-1 cellular viability assay (ATP-Lite, 72 h); type: cell-based; conditions: Homo sapiens, ATP-Lite luminescence, % viability relative to DMSO
Outline: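 Kasumi-1 AML cells, 15000/well in RPMI-1640 with 10% FBS, were exposed to compound titrations (0.1% final DMSO) for 72 h at 37 °C, 5% CO2. ATP-Lite One Step luminescence gave % viability versus DMSO control, and IC50 came from the concentration-response.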

[1] = biological target: T1, recombinant METTL3/METTL14 complex (Homo sapiens, UniProt Q86U44); test: METTL3/14 Scintillation Proximity Assay (SPA), RNA methyltransferase activity; type: biochemical; conditions: 5.31 nM METTL3/14 complex, 250 nM RNA substrate, 1 μM 3H-SAM, 90 min; for compounds marked * best of the two separated forms
T1 construct: purchased Active Motif 311970; host or cells: Sf9 cells

Caov-3 cells = test: Caov-3 cellular viability assay (ATP-Lite, 72 h); type: cell-based; conditions: Homo sapiens, ATP-Lite luminescence, % viability relative to DMSO
Method: Caov-3 cell line was purchased from ATCC (ATCC® HTB-75™). Cells were isolated from the ovary of a ovarian cancer patient.
Caov-3 cells are cultured in DMEM (ATCC 30-2002) containing 10% heat-inactivated and 0.22 μm filtered FBS (Gibco 10270-106). The cells are seeded at 2.5E+4cell/cm^2 within the recommended subcultivation ratio of 1:3 to 1:6, as stated on the certificate of analysis issues by the provider of the cells.
Cellular viability assay: Caov-3 cells were plated (50 μL) in 96-well cell culture microplates (PS, F-Bottom black, Cellstar, Greiner 655086) at final concentration of 10000 cells/well. The compounds of the invention were dissolved in DMSO, and a titration curve was generated at 1000× final concentration. Compounds were then diluted 500× in tissue culture medium (RPMI-1640, 10% FBS). Then 50 μl of test compound were added to Caov-3 cells in a final DMSO concentration of 0.1%, final volume 100 μl. A gas permeable sealing membrane was applied to the plate to prevent evaporation (Breathe-Easy sealing membrane, Sigma Z380059-1PK) and cells were incubated for 72 h at 37° C., 5% CO2, 80% RH. After 72 h of treatment, the plates were taken out of the incubator and left for a few minutes at room temperature. 100 μl of the reconstituted reagent ATP-Lite One Step (Perkin Elmer, 6016739) were added to each well. The plates were shaken for 2 min at 700 rpm and placed in the dark for 10 minutes at room temperature before measurement of luminescence intensity with Envision instrument. The raw data were expressed in RLU. Results were expressed in % of viability relative to DMSO control and an IC50 was calculated based on the concentration-response profile of individual compounds.

T1 sequence (Q86U44 whole entry): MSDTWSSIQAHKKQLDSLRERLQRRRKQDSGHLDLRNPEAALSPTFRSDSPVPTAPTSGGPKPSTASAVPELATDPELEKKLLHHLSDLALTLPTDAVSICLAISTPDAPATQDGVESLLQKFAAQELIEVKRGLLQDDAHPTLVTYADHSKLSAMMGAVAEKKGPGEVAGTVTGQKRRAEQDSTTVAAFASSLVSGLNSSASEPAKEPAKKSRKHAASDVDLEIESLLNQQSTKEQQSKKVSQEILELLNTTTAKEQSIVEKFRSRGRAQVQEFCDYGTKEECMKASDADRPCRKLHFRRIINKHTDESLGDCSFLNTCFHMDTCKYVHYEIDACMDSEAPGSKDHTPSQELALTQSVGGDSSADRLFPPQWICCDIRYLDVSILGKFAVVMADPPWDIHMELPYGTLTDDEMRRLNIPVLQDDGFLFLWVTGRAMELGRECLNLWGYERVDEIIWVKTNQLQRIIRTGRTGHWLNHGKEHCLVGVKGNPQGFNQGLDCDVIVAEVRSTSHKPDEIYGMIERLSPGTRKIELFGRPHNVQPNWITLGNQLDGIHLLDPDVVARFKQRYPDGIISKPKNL
T1 sequence (Q9HCE5 whole entry partner): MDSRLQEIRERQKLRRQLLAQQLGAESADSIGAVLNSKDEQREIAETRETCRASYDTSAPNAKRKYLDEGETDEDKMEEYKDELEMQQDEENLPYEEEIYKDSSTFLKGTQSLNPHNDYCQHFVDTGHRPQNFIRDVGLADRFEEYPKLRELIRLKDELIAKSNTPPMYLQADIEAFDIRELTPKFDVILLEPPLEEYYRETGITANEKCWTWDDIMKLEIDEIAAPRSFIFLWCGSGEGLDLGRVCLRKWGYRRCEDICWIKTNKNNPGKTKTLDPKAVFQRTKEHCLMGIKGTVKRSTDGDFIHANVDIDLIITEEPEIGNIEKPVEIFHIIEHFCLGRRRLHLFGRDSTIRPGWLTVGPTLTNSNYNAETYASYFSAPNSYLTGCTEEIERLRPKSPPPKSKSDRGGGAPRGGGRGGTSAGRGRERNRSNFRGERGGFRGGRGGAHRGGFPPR

IC50 [1]	Structure (SMILES)	IC50 (Kasumi-1 cells)	IC50 (Caov-3 cells)
≤ 50 nM	CC(n1cnc(-c2cncc(N3CCCC3)n2)c1)n1ccc(N2CCC[C@@H](NCC3CC3)C2)cc1=O (single isomer, unassigned) [Compound 226]	≤ 500 nM	≤ 500 nM
≤ 50 nM	CC(n1cc(-c2cncc(N3CCC(F)(F)C3)n2)nn1)n1ccc(N2CCC[C@@H](NCC3CC3)C2)cc1=O (single isomer, unassigned) [Compound 227]	≤ 500 nM	≤ 500 nM
≤ 50 nM	CC(n1cnc(-c2cncc(N(C)C)n2)c1)n1ccc(N2CCC[C@@H](NCC3CC3)C2)cc1=O (single isomer, unassigned) [Compound 229]	≤ 500 nM	≤ 500 nM
≤ 50 nM	CC(n1cc(-c2cncc(N3CCC(C)(C)C3)n2)nn1)n1ccc(N2CCC[C@@H](NCC3CC3)C2)cc1=O (single isomer, unassigned) [Compound 230]	≤ 500 nM	≤ 500 nM
≤ 50 nM	COc1cncc(-c2cn(C(C)n3ccc(N4CCC[C@@H](NCC5CC5)C4)cc3=O)nn2)c1 (single isomer, unassigned) [Compound 232]	≤ 500 nM	≤ 500 nM
≤ 50 nM	CC(n1cc(-c2cncc(N3CC4CC4C3)n2)nn1)n1ccc(N2CCC[C@@H](NCC3CC3)C2)cc1=O (single isomer, unassigned) [Compound 234]	≤ 500 nM	≤ 500 nM
≤ 50 nM	CC(n1cc(-c2cncc(N3CC4(COC4)C3)n2)nn1)n1ccc(N2CCC[C@@H](NCC3CC3)C2)cc1=O (single isomer, unassigned) [Compound 237]	500 to 5000 nM	500 to 5000 nM
≤ 50 nM	CC(n1cc(-c2cncc(N3CC[C@@H](C)C3)n2)nn1)n1ccc(N2CCC[C@@H](NCC3CC3)C2)cc1=O (single isomer, unassigned) [Compound 238]	≤ 500 nM	≤ 500 nM
≤ 50 nM	CC(n1cc(-c2cncc(N3CC[C@H](C)C3)n2)nn1)n1ccc(N2CCC[C@@H](NCC3CC3)C2)cc1=O (single isomer, unassigned) [Compound 240]	≤ 500 nM	≤ 500 nM
≤ 50 nM	CC(n1cc(-c2cncc(N3CC[C@H](F)C3)n2)nn1)n1ccc(N2CCC[C@@H](NCC3CC3)C2)cc1=O (single isomer, unassigned) [Compound 241]	≤ 500 nM	≤ 500 nM
≤ 50 nM	CC(c1cnc(-c2cncc(N3CCCC3)n2)o1)n1ccc(N2CCC[C@@H](NCC3CC3)C2)cc1=O (single isomer, unassigned) [Compound 242]	≤ 500 nM	≤ 500 nM
≤ 50 nM	CC(n1cnc(-c2cc(N(C)C)cnn2)c1)n1ccc(N2CCC[C@@H](NCC3CC3)C2)cc1=O (single isomer, unassigned) [Compound 243]	500 to 5000 nM	500 to 5000 nM
≤ 50 nM	CC(n1cc(-c2cncc(N3CC[C@@H](F)C3)n2)nn1)n1ccc(N2CCC[C@@H](NCC3CC3)C2)cc1=O (single isomer, unassigned) [Compound 245]	≤ 500 nM	≤ 500 nM
≤ 50 nM	COC1CN(c2cncc(-c3cn(C(C)n4ccc(N5CCC[C@@H](NCC6CC6)C5)cc4=O)nn3)n2)C1 (single isomer, unassigned) [Compound 246]	≤ 500 nM	≤ 500 nM
≤ 50 nM	CC(n1cc(-c2cncc(N3CC4(CC4)C3)n2)nn1)n1ccc(N2CCC[C@@H](NCC3CC3)C2)cc1=O (single isomer, unassigned) [Compound 247]	≤ 500 nM	≤ 500 nM
≤ 50 nM	CC(c1cnn(-c2cncc(N3CCCC3)c2)c1)n1ccc(N2CCC[C@@H](NCC3CC3)C2)cc1=O (single isomer, unassigned) [Compound 253]	≤ 500 nM	≤ 500 nM
≤ 50 nM	CC(n1cc(-c2cncc(N3CC4(C3)CC4(F)F)n2)nn1)n1ccc(N2CCC[C@@H](NCC3CC3)C2)cc1=O (single isomer, unassigned) [Compound 254]	≤ 500 nM	≤ 500 nM
≤ 50 nM	COc1cncc(-c2cn(C(C)c3ccc(N4CCC[C@@H](NCC5CCC5)C4)nn3)nn2)n1 (single isomer, unassigned) [Compound 258]	500 to 5000 nM	500 to 5000 nM

IC50 [1]	Structure (SMILES)	IC50 (Kasumi-1 cells)	IC50 (Caov-3 cells)
≤ 50 nM	CC(c1ccc(N2CCC[C@@H](NCC3CC3)C2)cn1)n1cc(-c2cncc(N3CCCC3)n2)nn1 (single isomer, unassigned) [Compound 259]	≤ 500 nM	≤ 500 nM
≤ 50 nM	CC(c1ccc(N2CCC[C@@H](NCC3CC3)C2)cn1)n1cc(-c2cncc(N(C)C)n2)nn1 (single isomer, unassigned) [Compound 260]	≤ 500 nM	≤ 500 nM
≤ 50 nM	CC(c1ccc(N2CCC[C@@H](NCC3CCC3)C2)nn1)n1cc(-c2cncc(N3CC4CC4C3)n2)nn1 (single isomer, unassigned) [Compound 284]	≤ 500 nM	≤ 500 nM
≤ 50 nM	CC(c1ccc(N2CCC[C@@H](NCC3CCC3)C2)nn1)n1cc(-c2cncc(N3CCCC3)n2)nn1 (single isomer, unassigned) [Compound 285]	≤ 500 nM	≤ 500 nM
≤ 50 nM	CC(c1ccc(N2CCC[C@@H](NCC3CCC3)C2)cn1)n1cc(-c2cncc(N3CC4CC4C3)n2)nn1 (single isomer, unassigned) [Compound 286]	≤ 500 nM	≤ 500 nM
≤ 50 nM	CC(c1ccc(N2CCC[C@@H](NCC3CCC3)C2)cn1)n1cc(-c2cncc(-n3cccn3)n2)nn1 (single isomer, unassigned) [Compound 293]	500 to 5000 nM	500 to 5000 nM
≤ 50 nM	COc1cncc(-c2cn(C(C)c3ccc(N4CCC[C@@H](NCC5CCC5)C4)cc3)cn2)c1 (single isomer, unassigned) [Compound 296]	500 to 5000 nM	500 to 5000 nM
≤ 50 nM	CC(c1ncc(N2CCC[C@@H](NCC3CCC3)C2)cc1F)n1cc(-c2cncc(N3CCCC3)n2)nn1 (single isomer, unassigned) [Compound 303]	≤ 500 nM	≤ 500 nM
≤ 50 nM	CC(c1ccc(N2CCC[C@@H](NCC3CC3)C2)nn1)n1cc(-c2cncc(N3CCCC3)n2)nn1 (single isomer, unassigned) [Compound 309]	≤ 500 nM	≤ 500 nM
≤ 50 nM	CC(c1ccc(N2CCC[C@@H](NCC3CC3)C2)nn1)n1cc(-c2cncc(C3CC3)c2)nn1 (single isomer, unassigned) [Compound 317]	≤ 500 nM	≤ 500 nM
≤ 50 nM	CC(c1ccc(N2CCC[C@@H](NCC3CC3)C2)nn1)n1cnc(-c2cncc(N3CCCC3)n2)c1 (single isomer, unassigned) [Compound 340]	≤ 500 nM	≤ 500 nM
≤ 50 nM	CC(c1ccc(N2CCC[C@@H](NCC3CC3)C2)nn1)n1cnc(-c2cncc(C3CC3)c2)c1 (single isomer, unassigned) [Compound 342]	≤ 500 nM	≤ 500 nM
≤ 50 nM	CC(c1ccc(N2CCC[C@@H](NCC3CC3)C2)nn1)c1nnc(-c2cncc(N3CCCC3)n2)o1 (single isomer, unassigned) [Compound 347]	500 to 5000 nM	500 to 5000 nM
≤ 50 nM	CC(c1ccc(N2CCC[C@@H](NCC3(C)CC3)C2)nn1)n1cnc(-c2cncc(N3CCCC3)n2)c1 (single isomer, unassigned) [Compound 348]	≤ 500 nM	≤ 500 nM
≤ 50 nM	CC(c1cnn(-c2cncc(N3CCCC3)n2)c1)c1ccc(N2CCC[C@@H](NCC3CC3)C2)cn1 (single isomer, unassigned) [Compound 354]	≤ 500 nM	≤ 500 nM
≤ 50 nM	CC(c1ccc(N2CCC[C@@H](NCC3CC3)C2)cn1)n1cnc(-c2cncc(N3CCCC3)n2)c1 (single isomer, unassigned) [Compound 355]	≤ 500 nM	≤ 500 nM
≤ 50 nM	CC(c1cnn(-c2cncc(C3CC3)c2)c1)c1ccc(N2CCC[C@@H](NCC3CC3)C2)cn1 (single isomer, unassigned) [Compound 356]	≤ 500 nM	≤ 500 nM
≤ 50 nM	CC(c1ccc(N2CCC[C@@H](NCC3CC3)C2)cn1)n1cc(-c2cncc(C3CC3)c2)nn1 (single isomer, unassigned) [Compound 357]	≤ 500 nM	≤ 500 nM
